The experiment deals with T1, human amylin receptor (Homo sapiens, UniProt O60896+P30988).
T1 construct: host or cells: CHO-K1/Ga15/AMY3 cells, further stably transfected with a CRE-luciferase plasmid
T1 sequence (P30988 25-474): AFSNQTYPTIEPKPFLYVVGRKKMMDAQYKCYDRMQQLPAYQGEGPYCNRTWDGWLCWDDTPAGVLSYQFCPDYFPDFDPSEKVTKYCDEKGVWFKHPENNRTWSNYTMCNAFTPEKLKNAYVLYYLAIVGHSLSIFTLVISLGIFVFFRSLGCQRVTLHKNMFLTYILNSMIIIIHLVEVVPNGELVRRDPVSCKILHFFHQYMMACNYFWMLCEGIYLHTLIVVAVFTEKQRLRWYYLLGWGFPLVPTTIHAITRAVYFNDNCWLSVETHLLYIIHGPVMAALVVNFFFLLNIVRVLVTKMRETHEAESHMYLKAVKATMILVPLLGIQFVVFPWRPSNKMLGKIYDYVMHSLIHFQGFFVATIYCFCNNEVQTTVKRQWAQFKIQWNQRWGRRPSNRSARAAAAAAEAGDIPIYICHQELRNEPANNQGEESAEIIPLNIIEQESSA
T1 sequence (O60896 24-148 partner): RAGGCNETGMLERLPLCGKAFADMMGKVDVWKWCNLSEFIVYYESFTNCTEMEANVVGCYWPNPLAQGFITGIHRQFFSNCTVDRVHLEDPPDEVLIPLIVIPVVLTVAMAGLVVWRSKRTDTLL
In words: Luciferase assay of amylin derivatives in amylin receptor/CRE-luc CHO cell line. In kind it is cell-based. To be noted: CHO-K1/Ga15/AMY3 CRE-luc cells, 24 hours incubation, F12 medium containing 10% FBS; read-out: EC50.

Numbered stars: 1 amine (or outer) side, 2 acyl side, 3 side chain; on linkers, the order of the positions; unused ones are H or OH. Bridge positions count the residues as written; N and C are the ends. Square brackets hold non-standard residues; d marks the D form. Side chains are listed from the residue outwards. Peptide text beside a SMILES is read from it. * marks the point of attachment. C20 diacid = O=C(O)CCCCCCCCCCCCCCCCCCC(=O)*; C18 diacid = O=C(O)CCCCCCCCCCCCCCCCC(=O)*; γGlu = O=C(O)[C@H](CCC(=O)[*:2])N[*:1]; Hyp = O=C(O)[C@@H]1C[C@@H](O)CN1; Orn = NCCC[C@H](N)C(=O)O; AEEA = NCCOCCOCC(=O)O

EC50 data for 6 compounds are collected here from patent US20260166128A1, “HUMAN AMYLIN ANALOG, AND DERIVATIVE THEREOF AND USE THEREOF” (priority 2022, published 2026).

Procedure: The experiment was intended to detect the activity or efficacy of the amylin derivatives on a human amylin receptor in vitro by luciferase assay.
50 μL of growth medium (F12 medium containing 10% FBS) was added into each well of a white 96-well plate, and the stably transfected amylin/CRE-lue CHO cells were inoculated into the white 96-well plate at a density of about 20,000 cells/well for activity determination.

For `CC[C@H](C)[C@H](NC(=O)[C@@H]1CCCN1C(=O)CNC(=O)[C@H](CC(C)C)NC(=O)[C@H](CC(N)=O)NC(=O)[C@H](CC(N)=O)NC(=O)[C@H](CCCCNC(=O)COCCOCCNC(=O)CC[C@H](NC(=O)CCCCCCCCCCCCCCCCCCC(=O)O)C(=O)O)NC(=O)[C@H](CO)NC(=O)[C@H](Cc1c[nH]cn1)NC(=O)[C@H](CCCNC(=N)N)NC(=O)[C@H](CC(C)C)NC(=O)[C@H](Cc1ccccc1)NC(=O)[C@H](CC(=O)O)NC(=O)[C@H](C)NC(=O)[C@H](CC(C)C)NC(=O)[C@H](CCCNC(=N)N)NC(=O)[C@H](CCC(N)=O)NC(=O)[C@@H](NC(=O)[C@H](C)NC(=O)[C@@H]1CSSC[C@H](NC(=O)[C@@H](N)CCCNC(=N)N)C(=O)N[C@@H](CC(N)=O)C(=O)N[C@@H]([C@@H](C)O)C(=O)N[C@@H](C)C(=O)N[C@@H]([C@@H](C)O)C(=O)N1)[C@@H](C)O)C(=O)N[C@@H](CC(C)C)C(=O)N1CCC[C@H]1C(=O)N1CCC[C@H]1C(=O)N[C@H](C(=O)N[C@@H](CC(N)=O)C(=O)N[C@H](C(=O)NCC(=O)N[C@@H](CO)C(=O)N[C@@H](CC(N)=O)C(=O)N[C@H](C(=O)N1C[C@H](O)C[C@H]1C(N)=O)[C@@H](C)O)C(C)C)[C@@H](C)O` [PD116] (H-RCNTATCATQRLADFLRHSK([AEEA-γGlu-C20 diacid])NNLGPILPPTNVGSNT[Hyp]-NH2; disulfide 2-7), the EC50 (in general, the midpoint of the concentration-response curve) was 0.033 nM.

In the case of `CC[C@H](C)[C@H](NC(=O)[C@@H]1CCCN1C(=O)CNC(=O)[C@H](CC(C)C)NC(=O)[C@H](CC(N)=O)NC(=O)[C@H](CC(N)=O)NC(=O)[C@H](CCCCNC(=O)COCCOCCNC(=O)COCCOCCNC(=O)CC[C@H](NC(=O)CCCCCCCCCCCCCCCCC(=O)O)C(=O)O)NC(=O)[C@H](CO)NC(=O)[C@H](Cc1c[nH]cn1)NC(=O)[C@H](CCCNC(=N)N)NC(=O)[C@H](CC(C)C)NC(=O)[C@H](Cc1ccccc1)NC(=O)[C@H](CC(=O)O)NC(=O)[C@H](C)NC(=O)[C@H](CC(C)C)NC(=O)[C@H](CCCNC(=N)N)NC(=O)[C@H](CCC(N)=O)NC(=O)[C@@H](NC(=O)[C@H](C)NC(=O)[C@@H]1CSSC[C@H](NC(=O)[C@@H](N)CCCNC(=N)N)C(=O)N[C@@H](CC(N)=O)C(=O)N[C@@H]([C@@H](C)O)C(=O)N[C@@H](C)C(=O)N[C@@H]([C@@H](C)O)C(=O)N1)[C@@H](C)O)C(=O)N[C@@H](CC(C)C)C(=O)N1CCC[C@H]1C(=O)N1CCC[C@H]1C(=O)N[C@H](C(=O)N[C@@H](CC(N)=O)C(=O)N[C@H](C(=O)NCC(=O)N[C@@H](CO)C(=O)N[C@@H](CC(N)=O)C(=O)N[C@H](C(=O)N1C[C@H](O)C[C@H]1C(N)=O)[C@@H](C)O)C(C)C)[C@@H](C)O` [PD097] (H-RCNTATCATQRLADFLRHSK([AEEA-AEEA-γGlu-C18 diacid])NNLGPILPPTNVGSNT[Hyp]-NH2; disulfide 2-7), the EC50 stood at 0.014 nM.

For the compound `CC[C@H](C)[C@H](NC(=O)[C@@H]1CCCN1C(=O)[C@H](CCCCNC(=O)COCCOCCNC(=O)CC[C@H](NC(=O)CCCCCCCCCCCCCCCCCCC(=O)O)C(=O)O)NC(=O)[C@H](CC(C)C)NC(=O)[C@H](CC(N)=O)NC(=O)[C@H](CC(N)=O)NC(=O)[C@H](CO)NC(=O)[C@H](CO)NC(=O)[C@H](Cc1c[nH]cn1)NC(=O)[C@H](CCCNC(=N)N)NC(=O)[C@H](CC(C)C)NC(=O)[C@H](Cc1ccccc1)NC(=O)[C@H](CC(=O)O)NC(=O)[C@H](C)NC(=O)[C@H](CC(C)C)NC(=O)[C@H](CCCNC(=N)N)NC(=O)[C@H](CCC(N)=O)NC(=O)[C@@H](NC(=O)[C@H](C)NC(=O)[C@@H]1CSSC[C@H](NC(=O)[C@@H](N)CCCNC(=N)N)C(=O)N[C@@H](CC(N)=O)C(=O)N[C@@H]([C@@H](C)O)C(=O)N[C@@H](C)C(=O)N[C@@H]([C@@H](C)O)C(=O)N1)[C@@H](C)O)C(=O)N[C@@H](CC(C)C)C(=O)N1CCC[C@H]1C(=O)N1CCC[C@H]1C(=O)N[C@H](C(=O)N[C@@H](CC(N)=O)C(=O)N[C@H](C(=O)NCC(=O)N[C@@H](CO)C(=O)N[C@@H](CC(N)=O)C(=O)N[C@H](C(=O)N1C[C@H](O)C[C@H]1C(N)=O)[C@@H](C)O)C(C)C)[C@@H](C)O` [PD106] (H-RCNTATCATQRLADFLRHSSNNLK([AEEA-γGlu-C20 diacid])PILPPTNVGSNT[Hyp]-NH2; disulfide 2-7), the EC50 stood at 0.026 nM. Regarding `CC[C@H](C)[C@H](NC(=O)[C@@H]1CCCN1C(=O)[C@H](CCCN)NC(=O)[C@H](CC(C)C)NC(=O)[C@H](CC(N)=O)NC(=O)[C@H](CC(N)=O)NC(=O)[C@H](CO)NC(=O)[C@H](CO)NC(=O)[C@H](Cc1c[nH]cn1)NC(=O)[C@H](CCCNC(=N)N)NC(=O)[C@H](CC(C)C)NC(=O)[C@H](Cc1ccccc1)NC(=O)[C@H](CC(=O)O)NC(=O)[C@H](C)NC(=O)[C@H](CC(C)C)NC(=O)[C@H](CCCNC(=N)N)NC(=O)[C@H](CCC(N)=O)NC(=O)[C@@H](NC(=O)[C@H](C)NC(=O)[C@@H]1CSSC[C@H](NC(=O)[C@H](CCCCN)NC(=O)CC[C@H](NC(=O)CCCCCCCCCCCCCCCCCCC(=O)O)C(=O)O)C(=O)N[C@@H](CC(N)=O)C(=O)N[C@@H]([C@@H](C)O)C(=O)N[C@@H](C)C(=O)N[C@@H]([C@@H](C)O)C(=O)N1)[C@@H](C)O)C(=O)N[C@@H](CC(C)C)C(=O)N1CCC[C@H]1C(=O)N1CCC[C@H]1C(=O)N[C@H](C(=O)N[C@@H](CC(N)=O)C(=O)N[C@H](C(=O)NCC(=O)N[C@@H](CO)C(=O)N[C@@H](CC(N)=O)C(=O)N[C@H](C(=O)N1CCC[C@H]1C(N)=O)[C@@H](C)O)C(C)C)[C@@H](C)O` [PD170] ({C20 diacid-γGlu}-KCNTATCATQRLADFLRHSSNNL[Orn]PILPPTNVGSNTP-NH2; disulfide 2-7 (inferred)), the EC50 is 0.041 nM.

`CC[C@H](C)[C@H](NC(=O)[C@@H]1CCCN1C(=O)CNC(=O)[C@H](CC(C)C)NC(=O)[C@H](CC(N)=O)NC(=O)[C@H](CC(N)=O)NC(=O)[C@H](CCCCNC(=O)CC[C@H](NC(=O)CCCCCCCCCCCCCCCCC(=O)O)C(=O)O)NC(=O)[C@H](CO)NC(=O)[C@H](Cc1c[nH]cn1)NC(=O)[C@H](CCCNC(=N)N)NC(=O)[C@H](CC(C)C)NC(=O)[C@H](Cc1ccccc1)NC(=O)[C@H](CC(=O)O)NC(=O)[C@H](C)NC(=O)[C@H](CC(C)C)NC(=O)[C@H](CCCNC(=N)N)NC(=O)[C@H](CCC(N)=O)NC(=O)[C@@H](NC(=O)[C@H](C)NC(=O)[C@@H]1CSSC[C@H](NC(=O)[C@@H](N)CCCNC(=N)N)C(=O)N[C@@H](CC(N)=O)C(=O)N[C@@H]([C@@H](C)O)C(=O)N[C@@H](C)C(=O)N[C@@H]([C@@H](C)O)C(=O)N1)[C@@H](C)O)C(=O)N[C@@H](CC(C)C)C(=O)N1CCC[C@H]1C(=O)N1CCC[C@H]1C(=O)N[C@H](C(=O)N[C@@H](CC(N)=O)C(=O)N[C@H](C(=O)NCC(=O)N[C@@H](CO)C(=O)N[C@@H](CC(N)=O)C(=O)N[C@H](C(=O)N1C[C@H](O)C[C@H]1C(N)=O)[C@@H](C)O)C(C)C)[C@@H](C)O` [PD096] (H-RCNTATCATQRLADFLRHSK([γGlu-C18 diacid])NNLGPILPPTNVGSNT[Hyp]-NH2; disulfide 2-7): the EC50 was 0.042 nM.

As to `CC[C@H](C)[C@H](NC(=O)[C@@H]1CCCN1C(=O)[C@H](CCCCNC(=O)CC[C@H](NC(=O)CCCCCCCCCCCCCCCCCCC(=O)O)C(=O)O)NC(=O)[C@H](CC(C)C)NC(=O)[C@H](CC(N)=O)NC(=O)[C@H](CC(N)=O)NC(=O)[C@H](CO)NC(=O)[C@H](CO)NC(=O)[C@H](Cc1c[nH]cn1)NC(=O)[C@H](CCCNC(=N)N)NC(=O)[C@H](CC(C)C)NC(=O)[C@H](Cc1ccccc1)NC(=O)[C@H](CC(=O)O)NC(=O)[C@H](C)NC(=O)[C@H](CC(C)C)NC(=O)[C@H](CCCNC(=N)N)NC(=O)[C@H](CCC(N)=O)NC(=O)[C@@H](NC(=O)[C@H](C)NC(=O)[C@@H]1CSSC[C@H](NC(=O)[C@@H](N)Cc2c[nH]cn2)C(=O)N[C@@H](CC(N)=O)C(=O)N[C@@H]([C@@H](C)O)C(=O)N[C@@H](C)C(=O)N[C@@H]([C@@H](C)O)C(=O)N1)[C@@H](C)O)C(=O)N[C@@H](CC(C)C)C(=O)N1CCC[C@H]1C(=O)N1CCC[C@H]1C(=O)N[C@H](C(=O)N[C@@H](CC(N)=O)C(=O)N[C@H](C(=O)NCC(=O)N[C@@H](CO)C(=O)N[C@@H](CC(N)=O)C(=O)N[C@H](C(=O)N1C[C@H](O)C[C@H]1C(N)=O)[C@@H](C)O)C(C)C)[C@@H](C)O` [PD078] (H-HCNTATCATQRLADFLRHSSNNLK([γGlu-C20 diacid])PILPPTNVGSNT[Hyp]-NH2; disulfide 2-7), the EC50 is 0.035 nM.
